Assay results: patent publication US20250019385A1, “SPIROCYCLIC ANNULATED 2-AMINO-3-CYANO THIOPHENES AND DERIVATIVES FOR THE TREATMENT OF CANCER” (Boehringer Ingelheim International GmbH, priority 2023, published 2025)

What was measured:
Ba/F3 cells KRAS G12C = assay: Ba/F3 proliferation assay (KRAS G12C); assay type: cell-based; conditions: AlamarBlue viability
Outline: (§1)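 Ba/F3 cells retrovirally transduced with KRAS G12 mutant, puromycin-selected, grown IL-3-independent; seeded in RPMI-1640 + 10% FCS without IL-3. Logarithmic compound dose series in duplicate, 72 h at 37° C., AlamarBlue fluorescence as % of DMSO control; IC50 from four-parameter non-linear regression.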

[1] = molecular target: KRAS (G12D)::CRAF protein::protein interaction (Homo sapiens (Human), UniProt P01116, G12D); assay: KRAS TR-FRET assay (KRAS G12D::CRAF, GTP); assay type: binding
KRAS (G12D)::CRAF protein::protein interaction, sequence (P01116 other isoform, or with tags, fused parts or gaps G12D): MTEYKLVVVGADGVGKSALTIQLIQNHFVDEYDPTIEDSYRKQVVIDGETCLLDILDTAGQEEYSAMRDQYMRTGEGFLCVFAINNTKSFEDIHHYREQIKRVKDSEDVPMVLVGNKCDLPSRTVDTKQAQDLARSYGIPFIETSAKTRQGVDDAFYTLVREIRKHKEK
Method: This assay measures the inhibitory effect of compounds on KRAS::CRAF protein::protein interactions in the presence of GTP using Time-resolved fluorescence energy transfer (TR-FRET).
The following wildtype or mutant alleles of KRAS and CRAF protein have been used at the given concentrations:
KRAS (G12D) 1-169, N-terminal 6His-tag, C-terminal avi-tag (Xtal BioStructures, Inc.); final assay concentration 15 nM,
CRAF Ras binding domain, GST-tag, TEV cleavage site (Boehringer Ingelheim in house protein prep); final assay concentration 15 nM.
Test compounds dissolved in DMSO were dispensed onto assay plates (Proxiplate 384 PLUS, white, PerkinElmer; 6008289) using an Access Labcyte Workstation with the Labcyte Echo 55x. For the chosen highest assay concentration of 100 μM, 150 nl of compound solution was transferred from a 10 mM DMSO compound stock solution. A series of eleven fivefold dilutions per compound was transferred to the assay plate, compound dilutions were tested in duplicates. DMSO was added as backfill to a total volume of 150 nl.
The assay runs on a fully automated robotic system. To 150 nl of compound dilution 15 μl of a mix including the respective KRAS allele, CRAF (e.g. KRAS (G12D)::CRAF; final assay concentrations see above), GTP nucleotide (Sigma G8877; final assay concentration 10 μM), Lance Eu—W1024 labeled Streptavidin (PerkinElmer, Cat No AD0063; final assay concentration 1.5 nM) and Anti-GST surelight APC (PerkinElmer, Cat No AD0059G; final assay concentration 30 nM) in assay buffer (1×PBS, 0.1% BSA, 0.05% Tween 20) are added into columns 1-23 and 15 μL of the solution without the respective KRAS allele were added to row 24.
Plates are kept at room temperature in a darkened incubator. After 60 minutes incubation time the signal is measured in a PerkinElmer Envision HTS Multilabel Reader using the TR-FRET LANCE Ultra specs from PerkinElmer.
Each plate contains 16 wells of a negative control (diluted DMSO instead of test compound; w respective KRAS allele; column 23) and 16 wells of a positive control (diluted DMSO instead of test compound; w/o respective KRAS allele; column 24).
IC50 values were calculated and analyzed with Boehringer Ingelheim's MEGALAB 50 application using a 4 parametric logistic model.
Tables of example compounds disclosed herein contain IC50 values determined using the above assays (see Table 44).

Ba/F3 cells KRAS G12D = assay: Ba/F3 proliferation assay (KRAS G12D); assay type: cell-based; conditions: AlamarBlue viability
Outline: as §1

| SMILES | IC50 (Ba/F3 cells KRAS G12C; Mus musculus, BaF3, 72 h) [nM] | IC50 [1] [nM] | IC50 (Ba/F3 cells KRAS G12D; Mus musculus, BaF3, 72 h) [nM] | IC50 (Ba/F3 cells KRAS G12C; 72 h) [nM] | IC50 (Ba/F3 cells KRAS G12D; 72 h) [nM] |
| --- | --- | --- | --- | --- | --- |
| C[C@H](Oc1nc(-c2noc3c2CCC[C@@]32CCCc3sc(N)c(C#N)c32)nc2c1CC[C@]21CNCCO1)[C@@H]1C[C@@H](F)CN1C [II-20] |  | 82 |  | 181 | 45 |
| C[C@H](Oc1nc(-c2onc3c2CCC[C@@]32CCCc3sc(N)c(C#N)c32)nc2c1n(C)c(=O)n2C1CCOCC1)[C@@H]1CCCN1C [I-10] | 43 | 698 | 118 |  |  |
| C[C@H](Oc1nc(-c2onc3c2CCC[C@@]32CCCc3sc(N)c(C#N)c32)nc2c1COC[C@]21CCOC1)[C@@H]1CCCN1C [I-54] | 2 | 25 | 4 |  |  |
| CC(C)n1c(=O)n([C@@H]2CCOC2)c2nc(-c3onc4c3CCC[C@@]43CCCc4sc(N)c(C#N)c43)nc(O[C@@H](C)[C@@H]3CCCN3C)c21 [I-32] | 23 | 478 | 58 |  |  |
| C[C@H](Oc1nc(-c2onc3c2CCC[C@@]32CCCc3sc(N)c(C#N)c32)nc2c1n(C)c(=O)n2C1COC1)[C@@H]1CCCN1C [I-24] | 59 | 565 | 134 |  |  |
| C[C@H](Oc1nc(-c2onc3c2CCC[C@@]32CCCc3sc(N)c(C#N)c32)nc2c1n(C)c(=O)n2[C@@H]1CCOC1)[C@@H]1C[C@H](F)CN1C [I-27] | 26 | 410 | 55 |  |  |
| Cc1cn([C@@H]2CCOC2)c2nc(-c3onc4c3CCC[C@@]43CCCc4sc(N)c(C#N)c43)nc(O[C@@H](C)[C@@H]3CCCN3C)c12 [I-41] | 122 | 362 | 106 |  |  |
| C[C@H](Oc1nc(-c2onc3c2CCC[C@@]32CCCc3sc(N)c(C#N)c32)nc2c1n(C)c(=O)n2[C@@H]1CCOC1)[C@@H]1[C@@H](F)CCN1C [I-5] | 31 | 449 | 68 |  |  |

Now from value to compound, other results behind:

| IC50 (Ba/F3 cells KRAS G12C; Mus musculus, BaF3, 72 h) [nM] | IC50 [1] [nM] | IC50 (Ba/F3 cells KRAS G12D; Mus musculus, BaF3, 72 h) [nM] | SMILES | IC50 (Ba/F3 cells KRAS G12C; 72 h) [nM] | IC50 (Ba/F3 cells KRAS G12D; 72 h) [nM] |
| --- | --- | --- | --- | --- | --- |
| 84 | 283 | 59 | C[C@H](Oc1nc(-c2noc3c2CCC[C@@]32CCCc3sc(N)c(C#N)c32)nc2c1COC[C@@]21CCOC1)[C@@H]1CCCN1C [II-9a] |  |  |
| 12 | 97 | 16 | C[C@H](Oc1nc(-c2noc3c2CCC[C@@]32CCCc3sc(N)c(C#N)c32)nc2c1cnn2[C@@H]1CCOC1)[C@@H]1CCCN1C [II-4] |  |  |
| 7 | 128 | 22 | C[C@H](Oc1nc(-c2noc3c2CCC[C@@]32CCCc3sc(N)c(C#N)c32)nc2c1CCCO[C@]21CCOC1)[C@@H]1CCCN1C [II-10] |  |  |
